# Results: US20070269830A1, “Process for the Identification of New Medical Targets” (priority 2003, published 2007)
# Columns and labels:
# [1] = target: T1, E. coli expressed His-tagged human carbonyl reductase (CBR1) (Homo sapiens, UniProt P16152); assay: carbonyl reductase activity assay (NADPH oxidation with menadione), recombinant enzyme; assay type: biochemical; conditions: rate without benserazide 24.0
# T1 construct: His; made in house; host or cells: E. coli
# T1 sequence (P16152 1-277): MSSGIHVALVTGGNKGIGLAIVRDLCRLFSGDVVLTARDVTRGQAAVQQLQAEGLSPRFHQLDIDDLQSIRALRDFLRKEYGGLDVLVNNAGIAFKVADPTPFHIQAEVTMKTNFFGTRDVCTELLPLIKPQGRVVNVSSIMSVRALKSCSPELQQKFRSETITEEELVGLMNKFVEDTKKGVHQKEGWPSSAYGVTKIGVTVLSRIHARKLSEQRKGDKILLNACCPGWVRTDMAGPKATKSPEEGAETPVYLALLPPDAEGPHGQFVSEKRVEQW
# Protocol: (§1) The carbonyl reductase activity was evaluated spectrophotometrically according to the methods of Iwata et al. 1990. Eur. J. Biochem 193, p. 75-81.: Inazu N, Ruepp B., Wirth H., Wermuth B. 1992. BBA, 1116, p. 50-56 and Imamura et al. 1993. Arch. Biochem. Biophys. 300, p. 570-576. The oxidation rate of NADPH was recorded in the presence of the specific substrate menadione at 340 nm at room temperature on a Jenway 6505 UV/VIS Spectrophotometer.
# (§2) The standard assay mixture consisted of 100 mM sodium phosphate buffer pH 7.0, 0.12 mM NADPH, 0.25 mM menadione. The reaction was started by adding 5-20 μg of E. coli expressed His-tagged human carbonyl reductase (CBR1) or alternatively by adding 10 μl of mouse live lysate extract (total protein concentration of 15 mg/ml). The total volume of the reaction mixture was 1 ml. The change of the absorbance was monitored at 340 nm.
# (§3) The inhibition of carbonyl reductase was determined using the assay described in example 1. In addition to menadione as a substrate, the assay mixture was supplemented with 0, 0.5, 1, 2, 3, 6, or 7.5 mM benserazide. The inhibition experiment performed with mouse liver lysate as well as with recombinant CBR1 in protein supplemented probes.
# [2] = target: T2, Carbonyl Reductase (CBR1) (Mus musculus, UniProt P48758); assay: drug pulldown assay with immobilized benserazide, mouse liver cell lysate; assay type: binding; conditions: benserazide on NHS-activated beads, mass spectrometry identification
# T2 construct: from tissue; host or cells: mouse liver
# T2 sequence (P48758 1-277): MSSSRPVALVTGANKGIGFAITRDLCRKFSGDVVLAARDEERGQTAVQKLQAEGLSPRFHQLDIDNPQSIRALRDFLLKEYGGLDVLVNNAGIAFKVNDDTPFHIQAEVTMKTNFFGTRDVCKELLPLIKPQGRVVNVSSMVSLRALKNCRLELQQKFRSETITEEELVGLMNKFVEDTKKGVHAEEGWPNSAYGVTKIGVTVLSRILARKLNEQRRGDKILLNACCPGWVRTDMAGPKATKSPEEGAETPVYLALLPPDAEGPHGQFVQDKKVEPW
# Protocol: The compound benserazide was immobilized on NHS-activated beads (Affi Gel 10, BioRad) via its NH2-group. 300 μl of the beads (both with the immobilized. benserazide and control beads) were washed in 10 ml washing buffer A (50 mM Tris, pH 7.5; 0.1 M NaCl, 0.15% lgepal, 1.5 mM MgCl2, 0.1 mM DTT) for 5-10 min at 4° C. and centrifugation for 5 min at 1000 rpm in a Heraeus Varifuge 3 OR).
# Mouse liver cell lysate (60-100 mg total protein) and 125 μl 50× protease inhibitor tablets (Roche, Complete, EDTA free) where added to the beads and the suspension was incubated for 1 h at 4° C. (while rotating). The suspension was washed 1-3 × with 10 ml washing buffer B (50 mM Tris, pH 7.5; 0.1 M NaCl, 0.15% lgepal, 1.5 mM MgCl2, 0.1 mM DTT, 1× Protease inhibitor tablet (Complete, EDTA free, Roche)) by rotating the suspension for 5-10 min at 4° C. and centrifugation at 10,000 rpm at 4° C. The beads were transferred to a 1 ml MoBiTec column and connected to a 10 ml syringe. 10 ml washing buffer B were added.
# Elution was performed by adding a 5-10 fold excess of the drug relative to the beads capacity. The drug was dissolved in 500 μl washing buffer B and incubated with beads on a rotating platform for 1 h at 4° C. and subsequently eluted in an eppendorf tube. 300 μl of washing buffer B were added to the beads and eluted immediately in the same eppendorf tube. […]
# [3] = tested on: carbonyl reductase activity in mouse liver lysate; assay: carbonyl reductase activity assay (NADPH oxidation with menadione), mouse liver lysate; assay type: biochemical; conditions: rate without benserazide 16.3
# Protocol: as §1, §2, §3
compound,measurement,setting,value
NC(CO)C(=O)NNCc1ccc(O)c(O)c1O (centres unmarked) [benserazide],"initial rate, carbonyl reductase","[1]; 2 mM benserazide, 0.25 mM menadione, 0.12 mM NADPH",13.7 nmol/min
same,"initial rate, carbonyl reductase",[1]; 6 mM benserazide,3.5 nmol/min
same,"initial rate, carbonyl reductase",[1]; 7.5 mM benserazide,0.3 nmol/min
same,binding of carbonyl reductase (CBR1) to immobilized drug,[2],Identified as a Binding Partner
same,"initial rate, mouse liver lysate",[3]; 0.5 mM benserazide,12.1 nmol/min
same,"initial rate, mouse liver lysate",[3]; 1 mM benserazide,8.6 nmol/min
same,"initial rate, mouse liver lysate",[3]; 2 mM benserazide,1.2 nmol/min
same,"initial rate, mouse liver lysate",[3]; 3 mM benserazide,1.3 nmol/min
